Laboratory results reported in ChEMBL document CHEMBL1158881, “Puupehenone congeners from an indo-pacific hyrtios sponge” (J Nat Prod, 2003).
The source made the active and inactive calls.

Key:
Assay type in all cases: functional, cell-based
[1] = test system: L1210; experiment: Cytotoxicity against mouse L1210 cells by Valeriote soft agar disk diffusion assay
[2] = test system: H116; experiment: Cytotoxicity against human H116 cells by Valeriote soft agar disk diffusion assay
[3] = test system: MC-38; experiment: Cytotoxicity against mouse Colon 38 cells by Valeriote soft agar disk diffusion assay

Measured: Activity

COc1cc2c(cc1O)O[C@@]1(C)CC[C@H]3C(C)(C)CCC[C@]3(C)C1=C2
inactive: all assays above

COC1=CC2=C[C@@H]3[C@@]4(C)CCCC(C)(C)[C@@H]4CC[C@]3(C)OC2=CC1=O
inactive: all assays above

COc1cc2c(cc1O)O[C@@]1(C)CC[C@H]3C(C)(C)CCC[C@]3(C)[C@H]1[C@@H]2OC
inactive: all assays above
